In patent US7534871B2, “Preparation and use of carbohydrate-based bicyclic ring structures with antimicrobial and cytostatic activity” (Kemin Pharma B.V.B.A., priority 2004, dated 2009):
Converted amounts (≈) assume the structure as drawn. Read-outs that look alike come from different tables or passages of the source.

Assays:
[1] = system: human T-lymphocyte cells (CEM/0); test: Cytostatic activity: inhibition of proliferation of CEM/0 cells; format: cell-based; conditions: CCRF-CEM, read-out: IC50 CEM/0
Protocol: (§1) The compounds were tested for anti-tumor activity via the inhibitory effects on the proliferation of murine leukemia cells (L1210/0), murine mammary carcinoma cells (FM3A), human T-lymphocyte cells (Molt4/C8, CEM/0) and human cervix carcinoma cells (HeLa).

HEL cells = test: Cytotoxicity: alteration of cell morphology (MCC); format: cell-based, human; conditions: minimum cytotoxic concentration that causes a microscopically detectable alteration of cell morphology
HSV-2 (G) = test: Anti-viral activity: HSV-2-induced cytopathicity in human embryo fibroblast E6SM cell cultures; format: cell-based, herpes simplex virus (HSV); conditions: Human alphaherpesvirus 2, 50%
[2] = Cytotoxicity: inhibition of HEL cell growth (CC50); format: cell-based; conditions: human; concentration required to reduce cell growth by 50%; HEL cells, three days
Protocol: The medium was then replaced by MEM containing various concentrations of the test compound. After three days incubation at 37° C., when the cell monolayer was 70% confluent, the cell number was determined with the Coulter counter. The minimum cytotoxic concentration was defined as the concentration required to reduce cell growth by 50%.

[3] = system: murine mammary carcinoma cells (FM3A); test: Cytostatic activity: inhibition of proliferation of FM3A cells; format: cell-based; conditions: Mus musculus, read-out: IC50 FM3A/0
Protocol: as §1

VRE ATCC700221 = test: Anti-bacterial activity, Bioscreen C growth curve: VRE; format: cell-based, vancomycin-resistant Enterococcus (VRE); conditions: Enterococcus, 35° C., 16 hours, negative control = 100, read-out: % of growth at 25 PPM compared to the negative control, VRE ATCC700221
Protocol: For the determination of the anti-bacterial and anti-fungal activity the Bioscreen C Analyser Labsystems, Finland, was used. This is an automated reader-incubator. It measures growth continuously by vertical photometry (optical density), processes the data and provides a print out of the results. The area under the growth curve is automatically determined via the Biolink software.
The inoculum size of the bacteria is standardized to approximately 5×10^5 CFU/ml.
For bacteria, the 100-honey-well plates containing test chemical, Mueller-Hinton broth and inoculum (=sample) are incubated at 35° C. for 16 hours. Also wells without inoculum are incubated (=blanco). Yeasts are incubated 35° C. for 24 hours in RPMI 1640+MOPS buffer at 165 mM. Moulds also in RPMI 1640+MOPS buffer at 165 mM are incubated 25° C. for 5 days. All micro-organisms are screened against a known concentration of the reference antibiotics or antimycotics such as vancomycin, penicillin G, gentamicin or amphotericin B. The growth curve and the area under the growth curve can be determined using the Biolink software; this is illustrated in FIG. 1.
The area of the blanco is subtracted from the area of the sample, this number (delta) gives us an indication of the biological activity of the molecules tested and can be expressed as a % of growth at a specific dose compared to a negative control that has a value of 100, illustrated in FIG. 2. Screening of each dose of a specific compound is repeated 5 times. The dose used for all new molecules in all tests is 25 PPM or 25 μg/ml.
In Table 4 the results of the anti-bacterial activity is given for the new molecules. The micro-organisms used are Staphylococcus aureus, MRSA, VRE, Enterococcus faecalis, Salmonella typhimurium and Pseudomonas aeruginosa.

VZV OKA = test: microbe, parasite or virus in culture; format: cell-based, varicella zoster virus (VZV); conditions: for EC50: Human alphaherpesvirus 3, HEL, read-out: EC50 VZV (HEL) OKA
[4] = system: murine leukemia cells (L1210/0); test: Cytostatic activity: inhibition of proliferation of L1210/0 cells; format: cell-based; conditions: Mus musculus
Protocol: as §1

HIV-1 (IIIB) = test: microbe, parasite or virus in culture; format: cell-based; conditions: Human immunodeficiency virus 1, IIIB, CCRF-CEM; concentration required to inhibit HIV-induced cytopathicity in human CEM cell cultures by 50%
[5] = system: L1210/0, FM3A, Molt4/C8, CEM/0 and HeLa cells; test: Cytostatic studies, conclusion over the panel of cell lines; format: cell-based, murine and human; conditions: conclusion in text on Table 3
Protocol: as §1

CMV AD-169 strain = test: Anti-CMV activity: plaque reduction in HEL cells, AD-169 strain; format: cell-based, human cytomegalovirus (CMV); conditions: for IC50: Human betaherpesvirus 5, AD169, HEL, Table 2, reduce virus plaque formation by 50%, virus input 100 PFU, read-out: IC50 CMV AD-169 Strain
CMV Davis strain = test: Anti-CMV activity: plaque reduction in HEL cells, Davis strain; format: cell-based, human cytomegalovirus (CMV); conditions: Human betaherpesvirus 5, HEL; Table 2; reduce virus plaque formation by 50%; virus input 100 PFU; read-out: IC50 CMV David strain
[6] = 50% inhibitory concentration, cell proliferation
[7] = L1210/0, 50% inhibitory concentration, cell proliferation, read-out: IC50 L1210/0

Row | SMILES | IC50 [1, 6] | Cytotoxicity Cell morphology (MCC) (HEL cells) | EC50 (HSV-2 (G)) | CC50 at 3 days [2] | IC50 [3, 6] | activity at 25 ppm (VRE ATCC700221) | EC50 (VZV OKA) | IC50 [4, 7] | EC50 (HIV-1 (IIIB)) | melting point | cytostatic activity, in words [5] | IC50 (CMV AD-169 strain) | anti-viral activity against CMV, in words (CMV AD-169 strain; strain not named) | IC50 (CMV Davis strain) | anti-viral activity against VZV, in words (VZV OKA; strain not named) | IC50 [1] | IC50 [3] | IC50 ([4]; L1210/0, read-out: IC50 L1210/0)
1 | CO[C@@H]1[C@@H](OC)[C@H](c2ccccc2)O[C@@H]2CO[C@@H](c3ccccc3)O[C@@H]12 [KPE00001015] | 81 ± 10 µg/mL (≈ 227 µM) | 50 μg/ml | > 80 µg/mL | > 50 µg/mL | > 200 µg/mL | 67.8% | 13 µg/mL (≈ 36.5 µM) | ≥ 200 µg/mL | > 4 µg/mL | – | – | – | – | – | – | – | – | –
2 | CO[C@@H]1[C@@H](OC)[C@H](Sc2ccccc2)O[C@@H]2COC(=O)CCCC/C=C/CCCCC(=O)O[C@@H]12 [KPE00001016.1] | 23 ± 0.5 µg/mL (≈ 46.7 µM) | – | > 3.2 µg/mL | – | 108 ± 9 µg/mL (≈ 219 µM) | 61.8% | 5 µg/mL (≈ 10.1 µM) | 20 ± 7 µg/mL (≈ 40.6 µM) | > 4 µg/mL | 60 to 61 °C | good cytostatic activity | 10 µg/mL (≈ 20.3 µM) | especially active | 10 µg/mL (≈ 20.3 µM) | especially active | – | – | –
3 | CO[C@@H]1[C@@H](OC)[C@H](Sc2ccccc2)O[C@@H]2COC(=O)CCCC/C=C\CCCCC(=O)O[C@@H]12 [KPE00001016.2] | 36 ± 16 µg/mL (≈ 73.1 µM) | – | > 3.2 µg/mL | – | > 200 µg/mL | 81% | > 50 µg/mL | 158 ± 10 µg/mL (≈ 321 µM) | > 100 µg/mL | 87 to 88 °C | – | > 20 µg/mL | – | > 20 µg/mL | – | – | – | –
4 | CO[C@@H]1[C@@H](OC)[C@H](Cc2ccccc2)O[C@@H]2CO[C@@H](c3ccccc3)O[C@@H]12 [KPE00001019] | ≥ 200 µg/mL | 20 μg/ml | > 80 µg/mL | > 50 µg/mL | > 200 µg/mL | 97% | > 5 µg/mL | > 200 µg/mL | > 100 µg/mL | – | – | – | – | – | – | – | – | –
5 | CO[C@@H]1[C@@H](OC)[C@H](Cc2ccccc2)O[C@@H]2COC(=O)CC/C=C/CCC(=O)O[C@@H]12 [KPE00001022] | – | – | 80 µg/mL (≈ 191 µM) | – | – | 87% | > 20 µg/mL | – | > 20 µg/mL | – | good cytostatic activity | > 5 µg/mL | – | – | – | 48 ± 15 µg/mL (≈ 115 µM) | 82 ± 14 µg/mL (≈ 196 µM) | 80 µg/mL (≈ 191 µM)
6 | CO[C@@H]1[C@@H](OC)[C@H](Cc2ccccc2)O[C@@H]2COC(=O)CCCCCCCCC=CCCCCCCCCC(=O)O[C@@H]12 [KPE00001031E] | ≥ 200 µg/mL | – | > 400 µg/mL | – | ≥ 200 µg/mL | 85.4% | > 5 µg/mL | > 200 µg/mL | > 100 µg/mL | 45 to 46 °C | – | > 5 µg/mL | – | – | – | – | – | –
